US20140220110A1, “REMOTE LOADING OF SPARINGLY WATER-SOLUBLE DRUGS INTO LIPOSOMES” (ZONEONE PHARMA, INC., priority 2013, published 2014)

Columns and labels:
Type in all cases: physicochemical
[1] = Remote loading of carfilzomib precipitate into liposomes (drug and lipid by HPLC after purification); settings: for efficiency of remote loading: 100 g drug/mol HSPC
Description: Ammonium sulfate solution was prepared by dissolving ammonium sulfate solid to a final concentration of 250 mM (500 mequivilents of anion/L) no pH adjustment was made to yield a final pH of 5.6. Sodium sulfate solution (250 mM) was prepared by adding 0.35 g sodium sulfate to 10 mL deionized water.
The liposomes were formed by extrusion. Lipids were dissolved in ethanol at a concentration of 500 mM HSPC (591 mg/mL total lipid) at 65° C. and the 9 volumes of the trapping agent solution heated to 65° C. was added to the ethanol/lipid solution also at 65° C. The mixture was vortexed and transferred to a 10 mL thermostatically controlled (65° C.) Lipex Extruder. The liposomes were formed by extruding 10 times through polycarbonate membranes having 0.1 um pores. After extrusion the liposomes were cooled on ice. The transmembrane electrochemical gradient was formed by purification of the liposomes by dialysis in dialysis tubing having a molecular weight cut off of 12,000-14,000. The samples are dialyzed against 5 mM HEPES, 10% sucrose pH 6.5 (stirring at 4° C.) at volume that is 100 fold greater than the sample volume. The dialysate was changed after 2 h then 4 more times after 12 h each. The conductivity of the liposome solution was measured and was indistinguishable from the dialysis medium ˜40 μS/cm.
(§1) The lipid concentration is determined by measuring the cholesterol by HPLC using an Agilent 1100 HPLC with and Agilent Zorbax 5 um, […], Eclipse XDB-C8 column and a mobile phase of A=0.1% TFA, B=0.1% TFA/MeOH with an isocratic elution of 99% B. The flow rate is 1.0 mL/min, column temperature is 50° C., 10 μL injection and detection by absorbance at 205 nm. The retention time of cholesterol is 4.5 min. The liposome size is measured by dynamic light scattering.
Carfilzomib (Selleck Chemicals) was dissolved in DMSO at a concentration of 10 mg/mL. The carfilzomib was introduced to the liposomes at a carfilzomib to HSPC ratio of 100 g drug/mol HSPC (drug to total lipid ratio (wt/wt) of 0.12). The liposomes were diluted with 50 mM citrate, 10% sucrose pH 4.0 to increase the volume to a point where after addition of the drug the final DMSO concentration is 2%. The carfilzomib/DMSO was added to the diluted liposomes, which were mixed at room temperature then transferred to a 65° C. bath and swirled every 30 s for the first 3 min and then swirled every 5 min over a total heating time of 30 min. All samples were very cloudy when the drug was added and all became clear (same as liposomes with no drug added) after 15 min. After heating for 30 min all samples were placed on ice for 15 min. The loaded liposomes were vortexed and 100 μL of sample was kept as the “before column” and the rest transferred to microcentrifuge tubes and spun at 10,000 RPM for 5 min. The supernatants were purified on a Sephadex G25 column collected and analyzed by HPLC. The HPLC analysis of carfilzomib was performed on the same system as described for analysis of cholesterol. The mobile phase consists of A=0.1% TFA, B=0.1% TFA/MeOH with a gradient elution starting at 50% B and increasing to 83% B in 13 min with 7 min equilibration back to 50% B. The flow rate is 1.0 mL/min, column temperature is 30 C, 10 μl injection and detection by absorbance at 205 nm. The retention time of carfilzomib is 12.2 min. The lipid concentration is determined by analysis of the cholesterol by HPLC.

[2] = Liposome size by dynamic light scattering; settings: liposomes loaded with carfilzomib, before lyophilizing
Description: as §1
See Example 1, Carfilzomib liposome entrapment by remote loading for details on how the liposomes were made, purified and characterized.

[3] = Reverse gradient-directed drug release from liposomes; settings: for % Carfilzomib Released: 65 C 30 min
Description: Liposomes were loaded with carfilzomib as described in Example 1 and were purified into deionized water. The sample was divided into two aliquots. To the first aliquot, concentrated Hepes pH 7.4 and NaCl was added so that the final concentration was 5 mM Hepes, 145 mM NaCl (HBS). To the second aliquot, concentrated ammonium sulfate was added so that the final concentration was 250 mM. No obvious physical changes were initially observed. The samples were then heated at 65° C. for 30 min. The samples were transferred to clean eppendorf tubes and centrifuged for 10,000 rpm for 5 min after which the supernatants and precipitates were separated and tested for carfilzomib content by HPLC assay. Released drug precipitated, liposome encapsulated drug remained in the supernatant. The % carfilzomib released was calculated by […]

[4] = Carfilzomib solubility as a function of DMSO content (optical density at 600 nm); settings: 0.2 mg/mL carfilzomib
Description: Carfilzomib was added from a stock 10 mg/mL solution in DMSO to 1 mL of a citric acid/DMSO mixture so that the composition of DMSO was 2%, 25%, 50%, 75% and 100%. The final drug concentration was 0.2 mg/mL. The solutions were prepared and measured for optical density at 600 nm. The optical density at 600 nm is a good measure of how turbid or how much scattering material (such as drug precipitates) are in a solution, generally, the more precipitates the higher the absorbance. From FIG. 8 is apparent that at DMSO concentrations below 50% vol/vol (25° C.) and 25% vol/vol (65° C.) the drug remains in a precipitated form. Only when the concentration of DMSO is increased does it become effectively solubilized at this concentration of 0.2 mg/mL.

[5] = 250 mM ammonium sulfate liposomes, drug added at 100 g drug/mol HSPC

efficiency of remote loading ([1]; 10 mg/mL DMSO solution added in 5 increments over 1 min while vortexing): 96.3%±1.09% | final drug to lipid ratio [1, 5]: 95.26±3.47 g drug/mol of HSPC | loading efficiency [1, 5]: 95.26±3.47% | final drug load ([1]; control liposomes with 250 mM sodium sulfate (no gradient), drug added at 100 g drug/mol HSPC): 33.28±0.79 g drug/mol of HSPC | loading capacity of remote loaded liposomes over sodium sulfate liposomes ([1]; input 100 g drug/mol HSPC): > 3 fold | efficiency of remote loading ([1]; trapping agent ammonium sulfate, 10 mg/mL DMSO solution added quickly): 97.0%±2.38% | PDI ([2]; (NH4)2SO4, drug added quickly): 0.062 | Z-ave ([2]; (NH4)2SO4, drug added quickly): 108 nm | PDI ([2]; (NH4)2SO4, drug added slowly): 0.035 | Z-ave ([2]; (NH4)2SO4, drug added slowly): 109.2 nm | PDI ([2]; Mellitic Acid): 0.08 | Z-ave ([2]; Mellitic Acid): 105.5 nm | PDI ([2]; Napthelenedisulfonic acid): 0.039 | Z-ave ([2]; Napthelenedisulfonic acid): 111.9 nm | drug released with reverse gradient over control with no reverse gradient [3]: 6.5 fold | % Carfilzomib Released ([3]; 250 mM ammonium sulfate outside (reverse gradient)): 68.5 ± 1.82% | % Carfilzomib Released ([3]; Hepes buffered saline (no reverse gradient)): 10.6 ± 0.28% | DMSO concentration below which the drug remains in a precipitated form ([4]; 25 C): 50 % vol/vol | DMSO required to completely dissolve the drug ([4]; 65 C): > 25 % vol/vol
SMILES: CC(C)C[C@H](NC(=O)[C@H](CCc1ccccc1)NC(=O)CN1CCOCC1)C(=O)N[C@@H](Cc1ccccc1)C(=O)N[C@@H](CC(C)C)C(=O)[C@@]1(C)CO1 [carfilzomib]
degradation of released drug (HPLC chromatogram against starting material) ([3]; after loading and release by reverse gradient): no degradation of carfilzomib had taken place
